Experimental data from US20080014186A1, “Hla-A24 or Hla-A2 Binding Peptides of Parathyroid Hormone-Related Protein” (GREEN PEPTIDE CO., LTD., priority 2004, published 2008).

Experiments:
[1] = system: PBMCs of HLA-A2^+ healthy donors and prostate cancer patients; experiment: Assay for peptide-specific CTLs in PBMCs (IFN-γ ELISA, peptide-pulsed T2 cells); assay type: cell-based, human; details: for INF-γ production: T2 cells; for Total (donors with significant peptide-specific IFN-γ production / donors tested): HLA-A2^+ healthy donors; for Total (donors with significant peptide-specific IFN-γ production / donors tested) / Total (patients with significant peptide-specific IFN-γ production / patients tested): p < 0.05; for Total (patients with significant peptide-specific IFN-γ production / patients tested): HLA-A2^+ prostate cancer patients
[2] = system: IgG in plasma of HLA-A2^+ healthy donors and prostate cancer patients; experiment: Peptide-specific IgG in plasma by ELISA (HLA-A2-binding PTHrP peptides); set-up: species or system human; details: for IgG reactive to the peptide in plasma (difference of OD): 1:100-diluted plasma; for Total (IgG-positive donors / donors tested): HLA-A2^+ healthy donors; for Total (IgG-positive patients / patients tested): HLA-A2^+ prostate cancer patients
In short: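 Plasma from HLA-A2+ donors and prostate cancer patients incubated 2 h at 37 °C on peptide-coated plates (20 μg/well); bound IgG detected by rabbit anti-human IgG (γ-chain), then HRP anti-rabbit, TMB.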

[3] = HLA-A2^+ healthy donor #1 (A0201)
[4] = HLA-A2^+ healthy donor #2 (A0201)
[5] = HLA-A2^+ healthy donor #3 (A0201)
[6] = HLA-A2^+ healthy donor #4 (A0201)
[7] = HLA-A2^+ healthy donor #5 (A0206)
[8] = HLA-A2^+ healthy donor #6 (A0206)
[9] = HLA-A2^+ healthy donor #7 (A0206)
[10] = HLA-A2^+ healthy donor #8 (A0206)
[11] = HLA-A2^+ healthy donor #9 (A0206)
[12] = HLA-A2^+ healthy donor #10 (A0207)
[13] = HLA-A2^+ prostate cancer patient #1 (A0206)
[14] = HLA-A2^+ prostate cancer patient #2 (A0210)
[15] = HLA-A2^+ prostate cancer patient #3 (A0210)
[16] = HLA-A2^+ prostate cancer patient #4 (A0206)
[17] = HLA-A2^+ prostate cancer patient #5 (A0206)
[18] = HLA-A2^+ prostate cancer patient #6 (A0207)
[19] = HLA-A2^+ prostate cancer patient #7 (A0206)
[20] = HLA-A2^+ prostate cancer patient #8 (A0206)
[21] = HLA-A2^+ prostate cancer patient #9 (A0201)
[22] = HLA-A2^+ prostate cancer patient #10 (A0201)
[23] = HLA-A2^+ prostate cancer patient #1
[24] = HLA-A2^+ prostate cancer patient #2
[25] = HLA-A2^+ prostate cancer patient #3
[26] = HLA-A2^+ prostate cancer patient #4
[27] = HLA-A2^+ prostate cancer patient #5
[28] = HLA-A2^+ prostate cancer patient #6
[29] = HLA-A2^+ prostate cancer patient #7
[30] = HLA-A2^+ prostate cancer patient #8
[31] = HLA-A2^+ prostate cancer patient #9
[32] = HLA-A2^+ prostate cancer patient #10

Sequence: IQDLRRRFFL [PTHrP 51-60]
- INF-γ production [1, 3]: 0 pg/mL
- INF-γ production [1, 4]: 79 pg/mL
- INF-γ production [1, 5]: 0 pg/mL
- INF-γ production [1, 6]: 314 pg/mL
- INF-γ production [1, 7]: 0 pg/mL
- INF-γ production [1, 8]: 46 pg/mL
- INF-γ production [1, 9]: 0 pg/mL
- INF-γ production [1, 10]: 16 pg/mL
- INF-γ production [1, 11]: 0 pg/mL
- INF-γ production [1, 12]: 14 pg/mL
- Total (donors with significant peptide-specific IFN-γ production / donors tested) [1]: 2/10
- INF-γ production [1, 13]: 55 pg/mL
- INF-γ production [1, 14]: 187 pg/mL
- INF-γ production [1, 15]: 34 pg/mL
- INF-γ production [1, 16]: 33 pg/mL
- INF-γ production [1, 17]: 0 pg/mL
- INF-γ production [1, 18]: 0 pg/mL
- INF-γ production [1, 19]: 0 pg/mL
- INF-γ production [1, 20]: 2 pg/mL
- INF-γ production [1, 21]: 67 pg/mL
- INF-γ production [1, 22]: 21 pg/mL
- Total (patients with significant peptide-specific IFN-γ production / patients tested) [1]: 2/10
- IgG reactive to the peptide in plasma (difference of OD) ([2]; HLA-A2^+ healthy donor #1): 0.0945 OD
- IgG reactive to the peptide in plasma (difference of OD) ([2]; HLA-A2^+ healthy donor #2): 0.1338 OD
- IgG reactive to the peptide in plasma (difference of OD) ([2]; HLA-A2^+ healthy donor #3): — (IgG reactive to a corresponding peptide was judged to be positive when a difference of OD in a 1:100-diluted plasma was more than 0.054.)
- IgG reactive to the peptide in plasma (difference of OD) ([2]; HLA-A2^+ healthy donor #4): — (IgG reactive to a corresponding peptide was judged to be positive when a difference of OD in a 1:100-diluted plasma was more than 0.054.)
- IgG reactive to the peptide in plasma (difference of OD) ([2]; HLA-A2^+ healthy donor #5): — (IgG reactive to a corresponding peptide was judged to be positive when a difference of OD in a 1:100-diluted plasma was more than 0.054.)
- IgG reactive to the peptide in plasma (difference of OD) ([2]; HLA-A2^+ healthy donor #6): — (IgG reactive to a corresponding peptide was judged to be positive when a difference of OD in a 1:100-diluted plasma was more than 0.054.)
- IgG reactive to the peptide in plasma (difference of OD) ([2]; HLA-A2^+ healthy donor #7): 0.0675 OD
- IgG reactive to the peptide in plasma (difference of OD) ([2]; HLA-A2^+ healthy donor #8): — (IgG reactive to a corresponding peptide was judged to be positive when a difference of OD in a 1:100-diluted plasma was more than 0.054.)
- IgG reactive to the peptide in plasma (difference of OD) ([2]; HLA-A2^+ healthy donor #9): — (IgG reactive to a corresponding peptide was judged to be positive when a difference of OD in a 1:100-diluted plasma was more than 0.054.)
- IgG reactive to the peptide in plasma (difference of OD) ([2]; HLA-A2^+ healthy donor #10): — (IgG reactive to a corresponding peptide was judged to be positive when a difference of OD in a 1:100-diluted plasma was more than 0.054.)
- Total (IgG-positive donors / donors tested) [2]: 3/10
- IgG reactive to the peptide in plasma (difference of OD) [2, 23]: — (IgG reactive to a corresponding peptide was judged to be positive when a difference of OD in a 1:100-diluted plasma was more than 0.054.)
- IgG reactive to the peptide in plasma (difference of OD) [2, 24]: — (IgG reactive to a corresponding peptide was judged to be positive when a difference of OD in a 1:100-diluted plasma was more than 0.054.)
- IgG reactive to the peptide in plasma (difference of OD) [2, 25]: 0.0675 OD
- IgG reactive to the peptide in plasma (difference of OD) [2, 26]: — (IgG reactive to a corresponding peptide was judged to be positive when a difference of OD in a 1:100-diluted plasma was more than 0.054.)
- IgG reactive to the peptide in plasma (difference of OD) [2, 27]: — (IgG reactive to a corresponding peptide was judged to be positive when a difference of OD in a 1:100-diluted plasma was more than 0.054.)
- IgG reactive to the peptide in plasma (difference of OD) [2, 28]: — (IgG reactive to a corresponding peptide was judged to be positive when a difference of OD in a 1:100-diluted plasma was more than 0.054.)
- IgG reactive to the peptide in plasma (difference of OD) [2, 29]: — (IgG reactive to a corresponding peptide was judged to be positive when a difference of OD in a 1:100-diluted plasma was more than 0.054.)
- IgG reactive to the peptide in plasma (difference of OD) [2, 30]: — (IgG reactive to a corresponding peptide was judged to be positive when a difference of OD in a 1:100-diluted plasma was more than 0.054.)
- IgG reactive to the peptide in plasma (difference of OD) [2, 31]: — (IgG reactive to a corresponding peptide was judged to be positive when a difference of OD in a 1:100-diluted plasma was more than 0.054.)
- IgG reactive to the peptide in plasma (difference of OD) [2, 32]: 0.0995 OD
- Total (IgG-positive patients / patients tested) [2]: 2/10

Sequence: YLTQETNKV [PTHrP 103-111]
- INF-γ production [1, 3]: 34 pg/mL
- INF-γ production [1, 4]: 217 pg/mL
- INF-γ production [1, 5]: 9 pg/mL
- INF-γ production [1, 6]: 0 pg/mL
- INF-γ production [1, 7]: 0 pg/mL
- INF-γ production [1, 8]: 0 pg/mL
- INF-γ production [1, 9]: 0 pg/mL
- INF-γ production [1, 10]: 0 pg/mL
- INF-γ production [1, 11]: 0 pg/mL
- INF-γ production [1, 12]: 0 pg/mL
- Total (donors with significant peptide-specific IFN-γ production / donors tested) [1]: 1/10
- INF-γ production [1, 13]: 144 pg/mL
- INF-γ production [1, 14]: 41 pg/mL
- INF-γ production [1, 15]: 57 pg/mL
- INF-γ production [1, 16]: 86 pg/mL
- INF-γ production [1, 17]: 0 pg/mL
- INF-γ production [1, 18]: 68 pg/mL
- INF-γ production [1, 19]: 49 pg/mL
- INF-γ production [1, 20]: 29 pg/mL
- INF-γ production [1, 21]: 56 pg/mL
- INF-γ production [1, 22]: 0 pg/mL
- Total (patients with significant peptide-specific IFN-γ production / patients tested) [1]: 1/10
- IgG reactive to the peptide in plasma (difference of OD) ([2]; HLA-A2^+ healthy donor #1): 0.0745 OD
- IgG reactive to the peptide in plasma (difference of OD) ([2]; HLA-A2^+ healthy donor #2): 0.092 OD
- IgG reactive to the peptide in plasma (difference of OD) ([2]; HLA-A2^+ healthy donor #3): — (IgG reactive to a corresponding peptide was judged to be positive when a difference of OD in a 1:100-diluted plasma was more than 0.054.)
- IgG reactive to the peptide in plasma (difference of OD) ([2]; HLA-A2^+ healthy donor #4): 0.128 OD
- IgG reactive to the peptide in plasma (difference of OD) ([2]; HLA-A2^+ healthy donor #5): 0.0575 OD
- IgG reactive to the peptide in plasma (difference of OD) ([2]; HLA-A2^+ healthy donor #6): — (IgG reactive to a corresponding peptide was judged to be positive when a difference of OD in a 1:100-diluted plasma was more than 0.054.)
- IgG reactive to the peptide in plasma (difference of OD) ([2]; HLA-A2^+ healthy donor #7): — (IgG reactive to a corresponding peptide was judged to be positive when a difference of OD in a 1:100-diluted plasma was more than 0.054.)
- IgG reactive to the peptide in plasma (difference of OD) ([2]; HLA-A2^+ healthy donor #8): 0.0585 OD
- IgG reactive to the peptide in plasma (difference of OD) ([2]; HLA-A2^+ healthy donor #9): — (IgG reactive to a corresponding peptide was judged to be positive when a difference of OD in a 1:100-diluted plasma was more than 0.054.)
- IgG reactive to the peptide in plasma (difference of OD) ([2]; HLA-A2^+ healthy donor #10): — (IgG reactive to a corresponding peptide was judged to be positive when a difference of OD in a 1:100-diluted plasma was more than 0.054.)
- Total (IgG-positive donors / donors tested) [2]: 5/10
- IgG reactive to the peptide in plasma (difference of OD) [2, 23]: — (IgG reactive to a corresponding peptide was judged to be positive when a difference of OD in a 1:100-diluted plasma was more than 0.054.)
- IgG reactive to the peptide in plasma (difference of OD) [2, 24]: — (IgG reactive to a corresponding peptide was judged to be positive when a difference of OD in a 1:100-diluted plasma was more than 0.054.)
- IgG reactive to the peptide in plasma (difference of OD) [2, 25]: — (IgG reactive to a corresponding peptide was judged to be positive when a difference of OD in a 1:100-diluted plasma was more than 0.054.)
- IgG reactive to the peptide in plasma (difference of OD) [2, 26]: — (IgG reactive to a corresponding peptide was judged to be positive when a difference of OD in a 1:100-diluted plasma was more than 0.054.)
- IgG reactive to the peptide in plasma (difference of OD) [2, 27]: — (IgG reactive to a corresponding peptide was judged to be positive when a difference of OD in a 1:100-diluted plasma was more than 0.054.)
- IgG reactive to the peptide in plasma (difference of OD) [2, 28]: — (IgG reactive to a corresponding peptide was judged to be positive when a difference of OD in a 1:100-diluted plasma was more than 0.054.)
- IgG reactive to the peptide in plasma (difference of OD) [2, 29]: 0.0655 OD
- IgG reactive to the peptide in plasma (difference of OD) [2, 30]: — (IgG reactive to a corresponding peptide was judged to be positive when a difference of OD in a 1:100-diluted plasma was more than 0.054.)
- IgG reactive to the peptide in plasma (difference of OD) [2, 31]: — (IgG reactive to a corresponding peptide was judged to be positive when a difference of OD in a 1:100-diluted plasma was more than 0.054.)
- IgG reactive to the peptide in plasma (difference of OD) [2, 32]: 0.112 OD
- Total (IgG-positive patients / patients tested) [2]: 2/10
